By MIC is commonly meant the lowest concentration found to suppress growth. The term IC50 denotes the concentration needed to halve the response being measured.

Test [1] has as its system Mycobacterium tuberculosis. Put plainly: Antimycobacterial activity against Mycobacterium tuberculosis H37Rv assessed as growth inhibition after 5 days by microplate Alamar Blue assay. The note with it: 120 h. Type of test: functional. (In general: The colour change of resazurin is a common sign of viable cells or microbes.)
In test [2] the test system is Vero. Briefly: Cytotoxicity against African green monkey Vero cells assessed as cell viability after 72 hrs by MTT assay. Type of test: cell-based. The conditions noted are these: Chlorocebus sabaeus. For orientation: Formazan colour is commonly taken as a measure of viable cells.

Molecules are shown by their SMILES. In brackets after ≈: the same amount, converted by molar mass. Where only a bound is given, the exact number is not on record here.

Regarding `COc1nc(C)nc(/N=C/c2ccc(C)cc2)n1`, in test [1], the MIC turned out to be 25 µg/mL (≈ 103 µM). Also, in test [2], the IC50 is over 50 µg/mL.

As for `COc1cccc(/C(C)=N/c2nc(C)nc(OC)n2)c1`, in test [1], the MIC was found to be 12.5 µg/mL (≈ 45.9 µM). Moreover, the IC50 in test [2] is over 50 µg/mL.

For the compound `COc1nc(C)nc(/N=C(\C)c2cccnc2)n1`, the MIC in test [1] worked out at 50 µg/mL (≈ 206 µM).

On to `NC(=O)c1cnccn1` [PYRAZINAMIDE], for which, in test [1], the minimum inhibitory concentration (MIC) stood at 3.12 µg/mL (≈ 25.4 µM). In test [2], the IC50 was over 50 µg/mL.

For the compound `COc1nc(C)nc(/N=C(\C)c2cc(C)ccc2O)n1`, the MIC in test [1] amounted to 50 µg/mL (≈ 184 µM).

For the compound `COc1nc(C)nc(/N=C/c2cccc([N+](=O)[O-])c2)n1`, the minimum inhibitory concentration (MIC) in test [1] is 50 µg/mL (≈ 183 µM).

With `COc1nc(C)nc(/N=C(\C)c2ccc(C)cc2)n1`, the MIC in test [1] stood at 12.5 µg/mL (≈ 48.8 µM). In test [2], the IC50 was over 50 µg/mL.

With `COc1nc(C)nc(/N=C/c2c[nH]c3ccccc23)n1`, the MIC in test [1] came out at 50 µg/mL (≈ 187 µM).

`COc1nc(C)nc(/N=C/c2cccnc2)n1`: the minimum inhibitory concentration (MIC) in test [1] was 50 µg/mL (≈ 218 µM).

On to `COc1nc(C)nc(/N=C/c2c3ccccc3cc3ccccc23)n1`, for which the MIC in test [1] amounted to 50 µg/mL (≈ 152 µM).

Turning to `COc1nc(C)nc(/N=C(\C)c2ccc(O)cc2)n1`, the MIC in test [1] is 25 µg/mL (≈ 96.8 µM). Further, in test [2], the half-maximal inhibitory concentration (IC50) is over 50 µg/mL.

For `COc1nc(C)nc(/N=C(\C)c2ccccc2O)n1`, the MIC in test [1] amounted to 25 µg/mL (≈ 96.8 µM). Moreover, in test [2], the IC50 is over 50 µg/mL.

As to `COc1nc(C)nc(/N=C/c2ccc(Cl)cc2)n1`, the MIC in test [1] worked out at 12.5 µg/mL (≈ 47.6 µM). Further, the 50% inhibitory concentration (IC50) in test [2] is over 50 µg/mL.

For `COc1ccc(/C(C)=N/c2nc(C)nc(OC)n2)cc1`, the MIC in test [1] was determined as 50 µg/mL (≈ 184 µM).

Turning to `COc1nc(C)nc(/N=C/c2ccc(Cl)cc2Cl)n1`, the MIC in test [1] is 12.5 µg/mL (≈ 42.1 µM). Further, in test [2], the IC50 was over 50 µg/mL.

Turning to `COc1nc(C)nc(/N=C/c2ccccc2)n1`, the MIC in test [1] is 50 µg/mL (≈ 219 µM).

As to `COc1nc(C)nc(/N=C(\C)c2ccc3ccccc3c2)n1`, the minimum inhibitory concentration (MIC) in test [1] was determined as 50 µg/mL (≈ 171 µM).

For `COc1nc(C)nc(/N=C/c2cccc(Br)c2)n1`, the MIC in test [1] is 12.5 µg/mL (≈ 40.7 µM). The IC50 in test [2] is over 50 µg/mL.

With `CC[C@@H](CO)NCCN[C@@H](CC)CO` [ETHAMBUTOL], in test [1], the MIC came out at 3.12 µg/mL (≈ 15.3 µM). The IC50 in test [2] is over 50 µg/mL.

Regarding `COc1nc(C)nc(/N=C(\C)c2ccc([N+](=O)[O-])cc2)n1`, the MIC in test [1] came out at 12.5 µg/mL (≈ 43.5 µM). The half-inhibitory concentration (IC50) in test [2] was over 50 µg/mL.

In the case of `COc1nc(C)nc(/N=C/c2cc(OC)c(OC)c(OC)c2)n1`, the MIC in test [1] was 3.12 µg/mL (≈ 9.82 µM). Also, in test [2], the IC50 is over 50 µg/mL.

Take `C=CCOc1ccc(/C=N/c2nc(C)nc(OC)n2)cc1`: the MIC in test [1] came out at 25 µg/mL (≈ 87.9 µM). The IC50 in test [2] is over 50 µg/mL.

Turning to `COc1nc(C)nc(/N=C(\C)c2cccs2)n1`, in test [1], the MIC was found to be 25 µg/mL (≈ 101 µM). Besides, the IC50 in test [2] was over 50 µg/mL.

As to `COc1nc(C)nc(/N=C/c2ccc(N(C)C)cc2)n1`, the MIC in test [1] came to 25 µg/mL (≈ 92.1 µM). The IC50 in test [2] is over 50 µg/mL.

Take `COc1nc(C)nc(/N=C(\C)c2cccc([N+](=O)[O-])c2)n1`: the MIC in test [1] was found to be 25 µg/mL (≈ 87 µM). The IC50 in test [2] was over 50 µg/mL.

For `COc1nc(C)nc(/N=C(\C)c2ccccc2)n1`, the MIC in test [1] amounted to 50 µg/mL (≈ 206 µM).

Consider `CN[C@@H]1[C@H](O[C@H]2[C@H](O[C@H]3[C@H](O)[C@@H](O)[C@H](N=C(N)N)[C@@H](O)[C@@H]3N=C(N)N)O[C@@H](C)[C@]2(O)C=O)O[C@@H](CO)[C@H](O)[C@H]1O` [STREPTOMYCIN], for which the MIC in test [1] is 6.25 µg/mL (≈ 10.7 µM). Moreover, in test [2], the IC50 was over 50 µg/mL.

Turning to `COc1nc(C)nc(/N=C(\C)c2ccc(O)cc2O)n1`, the MIC in test [1] is 25 µg/mL (≈ 91.1 µM). For the same compound, the concentration for half-maximal inhibition (IC50) in test [2] is over 50 µg/mL.

For `COc1nc(C)nc(/N=C(\C)c2cccc(C)c2O)n1`, the minimum inhibitory concentration (MIC) in test [1] came out at 50 µg/mL (≈ 184 µM).

`COc1nc(C)nc(/N=C(\C)c2ccc3c(c2)Cc2ccccc2-3)n1`: the MIC in test [1] amounted to 50 µg/mL (≈ 151 µM).

Regarding `COc1nc(C)nc(/N=C/c2cc(Cl)cc(Br)c2O)n1`, the MIC in test [1] turned out to be 6.25 µg/mL (≈ 17.5 µM). Moreover, the IC50 in test [2] was over 50 µg/mL.

On to `COc1nc(C)nc(/N=C(\C)c2cc(O)ccc2O)n1`, for which the MIC in test [1] worked out at 6.25 µg/mL (≈ 22.8 µM). Also, in test [2], the IC50 is over 50 µg/mL.

Regarding `CCOc1cc(/C=N/c2nc(C)nc(OC)n2)ccc1O`, the minimal inhibitory concentration (MIC) in test [1] was found to be 25 µg/mL (≈ 86.7 µM). In addition, the IC50 in test [2] was over 50 µg/mL.

As for `COc1nc(C)nc(/N=C/c2ccc[nH]2)n1`, the MIC in test [1] was 25 µg/mL (≈ 115 µM). In addition, the IC50 in test [2] is over 50 µg/mL.

Turning to `COc1nc(C)nc(/N=C/c2ccc(Br)cc2)n1`, the MIC in test [1] turned out to be 25 µg/mL (≈ 81.4 µM). For the same compound, the IC50 in test [2] was over 50 µg/mL.

These data come from ChEMBL document CHEMBL2434920, “Synthesis, characterization and in vitro biological evaluation of some novel 1,3,5-triazine-Schiff base conjugates as potential antimycobacterial agents” (Bioorg Med Chem Lett, 2013).
